According to ChEMBL document CHEMBL4613278, “Pyridine Derivative of the Natural Alkaloid Berberine as Human Telomeric G4-DNA Binder: A Solution and Solid-State Study” (ACS Med Chem Lett, 2020):
Active and inactive are the calls of the source. The rule behind the calls is not given here.

Experiments:
Format in all cases: nucleic-acid assay
Quadruplex DNA [1] = experiment: Binding affinity to human Tel23 G4 quadruplex DNA assessed as gibbs free energy change at 298.15 K by isothermal titration calorimetric analysis
Quadruplex DNA [2] = experiment: Binding affinity to human Tel23 G4 quadruplex DNA assessed as decrease in absorption maxima at 338 and 413 nm at 3 uM by spectrophotometric titration analysis
Quadruplex DNA [3] = experiment: Binding affinity to human Tel23 G4 quadruplex DNA assessed as decrease in intensity of positive peaks measured after 5 mins by circular dichroism method
Quadruplex DNA [4] = experiment: Binding affinity to human Tel12 G4 quadruplex DNA assessed as change in enthalpy at 298.15 K by isothermal titration calorimetric analysis
Quadruplex DNA [5] = experiment: Binding affinity to human Tel23 G4 quadruplex DNA assessed as change in enthalpy at 298.15 K by isothermal titration calorimetric analysis
Quadruplex DNA [6] = experiment: Binding affinity to human Tel23 G4 quadruplex DNA assessed as sharp isosbestic point at 350, 375 and 430 nm at 3 uM by spectrophotometric titration analysis
Quadruplex DNA [7] = experiment: Binding affinity to human Tel12 G4 quadruplex DNA assessed as sharp isosbestic point at 351 and 433 nm at 3 uM by spectrophotometric titration analysis
Quadruplex DNA [8] = experiment: Binding affinity to human Tel23 G4 quadruplex DNA at 298.15 K by isothermal titration calorimetric analysis
Quadruplex DNA [9] = experiment: Binding affinity to human Tel23 G4 quadruplex DNA assessed as quadruplex DNA stabilization by measuring increase in melting temperature at compound:quadruplex DNA ratio of 1:1 by thermal melting studies
Quadruplex DNA [10] = experiment: Binding affinity to human Tel12 G4 quadruplex DNA assessed as decrease in absorption maxima at 338 and 413 nm at 3 uM by spectrophotometric titration analysis
Quadruplex DNA [11] = experiment: Binding affinity to human Tel12 G4 quadruplex DNA assessed as gibbs free energy change at 298.15 K by isothermal titration calorimetric analysis
Quadruplex DNA [12] = experiment: Binding affinity to human Tel23 G4 quadruplex DNA assessed as change in entropy at 298.15 K by isothermal titration calorimetric analysis
Quadruplex DNA [13] = experiment: Binding affinity to human Tel12 G4 quadruplex DNA assessed as quadruplex DNA stabilization by measuring increase in melting temperature at compound:quadruplex DNA ratio of 1:1 by thermal melting studies
Quadruplex DNA [14] = experiment: Binding affinity to human Tel12 G4 quadruplex DNA assessed as decrease in intensity of positive peaks measured after 5 mins by circular dichroism method
Quadruplex DNA [15] = experiment: Binding affinity to human Tel12 G4 quadruplex DNA assessed as increase in fluorescence intensity at 1 uM by spectrofluorimetric titration analysis
Quadruplex DNA [16] = experiment: Binding affinity to human Tel12 G4 quadruplex DNA at 298.15 K by isothermal titration calorimetric analysis
Quadruplex DNA [17] = experiment: Binding affinity to human Tel12 G4 quadruplex DNA assessed as change in entropy at 298.15 K by isothermal titration calorimetric analysis
Quadruplex DNA [18] = experiment: Binding affinity to human Tel23 G4 quadruplex DNA assessed as increase in fluorescence intensity at 1 uM by spectrofluorimetric titration analysis

deltaG (Quadruplex DNA [1]): -6.55 kcal/mol | Activity (Quadruplex DNA [2]): Active | Activity (Quadruplex DNA [3]): Active | deltaH (Quadruplex DNA [4]): -7.08 kcal/mol | deltaH (Quadruplex DNA [5]): -8.53 kcal/mol | Activity (Quadruplex DNA [6]): Active | Activity (Quadruplex DNA [7]): Active | K (Quadruplex DNA [8]): 8.15 ×10⁴ /M | deltaTm (Quadruplex DNA [9]): 2 K | Activity (Quadruplex DNA [10]): Active | deltaG (Quadruplex DNA [11]): -7.38 kcal/mol | TdeltaS (Quadruplex DNA [12]): -1.97 kcal/mol | deltaTm (Quadruplex DNA [13]): 15 K | Activity (Quadruplex DNA [14]): Active | Activity (Quadruplex DNA [15]): Active | K (Quadruplex DNA [16]): 3.16 ×10⁵ /M | TdeltaS (Quadruplex DNA [17]): 0.3 kcal/mol | Activity (Quadruplex DNA [18]): Active
SMILES: COc1ccc2c(CCCc3ccncc3)c3[n+](cc2c1OC)CCc1cc2c(cc1-3)OCO2
